{"source": "patent US8003785B2", "about": "(Takeda Pharmaceutical Company Limited, priority 2008, dated 2011)"}
{"target": "T1, PLK1 (Homo sapiens, UniProt P53350)", "T1 construct": "Full-length, active GST-PLK1 is purified from Sf9 insect cells; made in house; host or cells: Sf9 insect cells", "T1 sequence (P53350 whole entry)": "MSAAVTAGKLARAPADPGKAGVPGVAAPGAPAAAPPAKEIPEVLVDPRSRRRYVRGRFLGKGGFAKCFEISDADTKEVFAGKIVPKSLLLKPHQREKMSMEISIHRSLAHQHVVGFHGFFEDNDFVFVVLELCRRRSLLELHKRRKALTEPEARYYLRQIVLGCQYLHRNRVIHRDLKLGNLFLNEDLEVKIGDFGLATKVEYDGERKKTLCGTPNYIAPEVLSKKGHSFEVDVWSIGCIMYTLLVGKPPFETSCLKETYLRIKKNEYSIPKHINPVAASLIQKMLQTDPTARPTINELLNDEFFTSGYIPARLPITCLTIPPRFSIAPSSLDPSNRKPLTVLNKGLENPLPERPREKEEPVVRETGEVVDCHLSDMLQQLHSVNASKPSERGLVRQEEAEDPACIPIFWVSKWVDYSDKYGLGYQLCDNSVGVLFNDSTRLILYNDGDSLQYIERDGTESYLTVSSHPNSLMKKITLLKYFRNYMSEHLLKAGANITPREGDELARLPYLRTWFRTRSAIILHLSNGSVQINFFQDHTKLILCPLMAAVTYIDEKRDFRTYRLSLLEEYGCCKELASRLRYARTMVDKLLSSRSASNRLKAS", "assay": "Biochemical Characterization Assay: HTRF kinase assay, GST-PLK1 phosphorylation of GST-p53", "conditions": "GST-PLK1, GST-p53 substrate", "method": "(§1) Biochemical Characterization Assay\n(§2) Full-length, active GST-PLK1 is purified from Sf9 insect cells, and full-length GST-p53 is purified from E. coli. Anti-phospho p53 antibody is from Cell Signaling Technology. Europium-conjugated anti-rabbit antibody is from PerkinElmer Life and Analytical Sciences. APC-conjugated anti-GST antibody is from Prozyme.\n(§3) Six microliters of GST-PLK1 (3 ug/mL) in Kinase Assay Buffer are then added and the solution incubated at 37° C. for 35 minutes. Six microliters of solution containing 43 mM EDTA to stop the reaction and a 1:600 dilution of anti-phospho-p53 antibody in 20 mM HEPES pH 7, 50 mM NaCl, and 0.5 mg/mL BSA (Antibody Binding Buffer) are added and the solution incubated at 37° C. for 30 minutes. […] The HTRF signal is read on an Envision reader from PerkinElmer Life and Analytical Sciences.", "units": {"IC50": "nM"}}
{"compound": "COc1cc(C(=O)O)ccc1Nc1ncc2c(n1)N([C@@H]1C[C@H]1c1ccccc1)CC(F)(F)C(=O)N2C", "note": "(relative stereo) [Example I-287, 4-[7,7-difluoro-5-methyl-6-oxo-9-(trans-2-phenyl-cyclopropyl)-6,7,8,9-tetrahydro-5H-pyrimido[4,5-b][1,4]diazepin-2-ylamino]-3-methoxy-benzoic acid]", "IC50": "> 5000"}
{"compound": "COc1cc(C(=O)NC2CCN(C)CC2)ccc1Nc1ncc2c(n1)N([C@@H]1C[C@H]1c1ccccc1)CC(F)(F)C(=O)N2C", "note": "(relative stereo) [Example I-288, 4-[7,7-difluoro-5-methyl-6-oxo-9-(trans-2-phenyl-cyclopropyl)-6,7,8,9-tetrahydro-5H-pyrimido[4,5-b][1,4]diazepin-2-ylamino]-3-methoxy-N-(1-methyl-piperidin-4-yl)-benzamide]", "IC50": "51 to 500"}
{"compound": "COc1cc(C(N)=O)ccc1Nc1ncc2c(n1)N([C@@H]1C[C@H]1c1ccccc1)CC(F)(F)C(=O)N2C", "note": "(relative stereo) [Example I-289, 4-[7,7-difluoro-5-methyl-6-oxo-9-(trans-2-phenyl-cyclopropyl)-6,7,8,9-tetrahydro-5H-pyrimido[4,5-b][1,4]diazepin-2-ylamino]-3-methoxy-benzamide]", "IC50": "> 5000"}
{"compound": "COc1cc(C(=O)NCCCN(C)C)ccc1Nc1ncc2c(n1)N([C@@H]1C[C@H]1c1ccccc1)CC(F)(F)C(=O)N2C", "note": "(relative stereo) [Example I-290, 4-[7,7-difluoro-5-methyl-6-oxo-9-(trans-2-phenyl-cyclopropyl)-6,7,8,9-tetrahydro-5H-pyrimido[4,5-b][1,4]diazepin-2-ylamino]-N-(3-dimethylamino-propyl)-3-methoxy-benzamide]", "IC50": "51 to 500"}
{"target": "T1, PLK1", "assay": "Biochemical Characterization Assay: HTRF kinase assay, GST-PLK1 phosphorylation of GST-p53", "conditions": "GST-PLK1, GST-p53 substrate, ATP", "method": "as §1, §2, §3", "units": {"IC50": "nM"}}
{"compound": "COc1cc(C(=O)NC(C)c2ccccc2)ccc1Nc1ncc2c(n1)N(C1CCCC1)CC(F)(F)C(=O)N2C", "note": "(racemic) [Example I-37, rac-4-(9-cyclopentyl-7,7-difluoro-5-methyl-6-oxo-6,7,8,9-tetrahydro-5H-pyrimido[4,5-b][1,4]diazepin-2-ylamino)-3-methoxy-N-(1-phenyl-ethyl)-benzamide]", "IC50": "51 to 500"}
{"compound": "COc1cc(C(=O)N[C@@H]2CCN(C(=O)OCc3ccccc3)C[C@H]2O)ccc1Nc1ncc2c(n1)N(C1CCCC1)CC(F)(F)C(=O)N2C", "note": "(racemic) [Example I-54, rac-(3R,4R)-4-[4-(9-cyclopentyl-7,7-difluoro-5-methyl-6-oxo-6,7,8,9-tetrahydro-5H-pyrimido[4,5-b][1,4]diazepin-2-ylamino)-3-methoxy-benzoylamino]-3-hydroxy-piperidine-1-carboxylic acid benzyl ester]", "IC50": "51 to 500"}
{"compound": "COc1cc(C(=O)N[C@@H]2CCN(C(=O)OCc3ccccc3)C[C@H]2OC)ccc1Nc1ncc2c(n1)N(C1CCCC1)CC(F)(F)C(=O)N2C", "note": "(racemic) [Example I-55, rac-(3R,4R)-4-[4-(9-cyclopentyl-7,7-difluoro-5-methyl-6-oxo-6,7,8,9-tetrahydro-5H-pyrimido[4,5-b][1,4]diazepin-2-ylamino)-3-methoxy-benzoylamino]-3-methoxy-piperidine-1-carboxylic acid benzyl ester]", "IC50": "51 to 500"}
{"compound": "COc1cc(C(=O)N[C@@H]2CCN(C(=O)OC(C)(C)C)C[C@@H]2OC)ccc1Nc1ncc2c(n1)N(C1CCCC1)CC(F)(F)C(=O)N2C", "note": "(racemic) [Example I-56, rac-(3S,4R)-4-[4-(9-cyclopentyl-7,7-difluoro-5-methyl-6-oxo-6,7,8,9-tetrahydro-5H-pyrimido[4,5-b][1,4]diazepin-2-ylamino)-3-methoxy-benzoylamino]-3-methoxy-piperidine-1-carboxylic acid tert-butyl ester]", "IC50": "1 to 50"}
{"compound": "COc1cc(C(=O)N[C@@H]2CCNC[C@@H]2OC)ccc1Nc1ncc2c(n1)N(C1CCCC1)CC(F)(F)C(=O)N2C", "note": "(racemic) [Example I-57, rac-(3S,4R)-4-(9-cyclopentyl-7,7-difluoro-5-methyl-6-oxo-6,7,8,9-tetrahydro-5H-pyrimido[4,5-b][1,4]diazepin-2-ylamino)-3-methoxy-N-(3-methoxy-piperidin-4-yl)-benzamide]", "IC50": "1 to 50"}
{"compound": "COc1cc(C(=O)N[C@H]2CN(C(=O)OCc3ccccc3)CC[C@@H]2OC)ccc1Nc1ncc2c(n1)N(C1CCCC1)CC(F)(F)C(=O)N2C", "note": "(racemic) [Example I-58, rac-(3S,4S)-3-[4-(9-cyclopentyl-7,7-difluoro-5-methyl-6-oxo-6,7,8,9-tetrahydro-5H-pyrimido[4,5-b][1,4]diazepin-2-ylamino)-3-methoxy-benzoylamino]-4-methoxy-piperidine-1-carboxylic acid benzyl ester]", "IC50": "51 to 500"}
{"compound": "COc1cc(C(=O)O)ccc1Nc1ncc2c(n1)N(C1CCC1)CC(F)(F)C(=O)N2C", "note": "[Example I-1, 4-(9-cyclobutyl-7,7-difluoro-5-methyl-6-oxo-6,7,8,9-tetrahydro-5H-pyrimido[4,5-b][1,4]diazepin-2-ylamino)-3-methoxy-benzoic acid]", "IC50": "1 to 50"}
{"compound": "COc1cc(C(N)=O)ccc1Nc1ncc2c(n1)N(C1CCC1)CC(F)(F)C(=O)N2C", "note": "[Example I-2, 4-(9-cyclobutyl-7,7-difluoro-5-methyl-6-oxo-6,7,8,9-tetrahydro-5H-pyrimido[4,5-b][1,4]diazepin-2-ylamino)-3-methoxy-benzamide]", "IC50": "1 to 50"}
{"compound": "CNC(=O)c1ccc(Nc2ncc3c(n2)N(C2CCC2)CC(F)(F)C(=O)N3C)c(OC)c1", "note": "[Example I-3, 4-(9-cyclobutyl-7,7-difluoro-5-methyl-6-oxo-6,7,8,9-tetrahydro-5H-pyrimido[4,5-b][1,4]diazepin-2-ylamino)-3-methoxy-N-methyl-benzamide]", "IC50": "1 to 50"}
{"compound": "COc1cc(C(=O)NC2CCN(C)CC2)ccc1Nc1ncc2c(n1)N(C1CCC1)CC(F)(F)C(=O)N2C", "note": "[Example I-4, 4-(9-cyclobutyl-7,7-difluoro-5-methyl-6-oxo-6,7,8,9-tetrahydro-5H-pyrimido[4,5-b][1,4]diazepin-2-ylamino)-3-methoxy-N-(1-methyl-piperidin-4-yl)-benzamide]", "IC50": "1 to 50"}
{"compound": "COc1cc(C(=O)NC2CCNCC2)ccc1Nc1ncc2c(n1)N(C1CCC1)CC(F)(F)C(=O)N2C", "note": "[Example I-5, 4-(9-cyclobutyl-7,7-difluoro-5-methyl-6-oxo-6,7,8,9-tetrahydro-5H-pyrimido[4,5-b][1,4]diazepin-2-ylamino)-3-methoxy-N-piperidin-4-yl-benzamide]", "IC50": "1 to 50"}
{"compound": "COc1cc(C(=O)N2CCC(N)CC2)ccc1Nc1ncc2c(n1)N(C1CCC1)CC(F)(F)C(=O)N2C", "note": "[Example I-6, 2-[4-(4-amino-piperidine-1-carbonyl)-2-methoxy-phenylamino]-9-cyclobutyl-7,7-difluoro-5-methyl-5,7,8,9-tetrahydro-pyrimido[4,5-b][1,4]diazepin-6-one]", "IC50": "51 to 500"}
{"compound": "COc1cc(C(=O)NC2CCOCC2)ccc1Nc1ncc2c(n1)N(C1CCC1)CC(F)(F)C(=O)N2C", "note": "[Example I-7, 4-(9-cyclobutyl-7,7-difluoro-5-methyl-6-oxo-6,7,8,9-tetrahydro-5H-pyrimido[4,5-b][1,4]diazepin-2-ylamino)-3-methoxy-N-(tetrahydro-pyran-4-yl)-benzamide]", "IC50": "1 to 50"}
{"compound": "COc1cc(C(=O)NCCN(C)C)ccc1Nc1ncc2c(n1)N(C1CCC1)CC(F)(F)C(=O)N2C", "note": "[Example I-8, 4-(9-cyclobutyl-7,7-difluoro-5-methyl-6-oxo-6,7,8,9-tetrahydro-5H-pyrimido[4,5-b][1,4]diazepin-2-ylamino)-N-(2-dimethylamino-ethyl)-3-methoxy-benzamide]", "IC50": "1 to 50"}
